In patent publication US20260184712A1, “Heterocyclic Compounds as ENT Inhibitors and Compounds for Use in the Treatment of Cancers” (iTeos Belgium SA, priority 2022, published 2026):

Biological target: T1, human ENT1 (Homo sapiens, UniProt Q99808)
T1 construct: JAR cells expressing ENT1 were purchased from ATCC; host or cells: JAR cells
T1 sequence (Q99808 1-456): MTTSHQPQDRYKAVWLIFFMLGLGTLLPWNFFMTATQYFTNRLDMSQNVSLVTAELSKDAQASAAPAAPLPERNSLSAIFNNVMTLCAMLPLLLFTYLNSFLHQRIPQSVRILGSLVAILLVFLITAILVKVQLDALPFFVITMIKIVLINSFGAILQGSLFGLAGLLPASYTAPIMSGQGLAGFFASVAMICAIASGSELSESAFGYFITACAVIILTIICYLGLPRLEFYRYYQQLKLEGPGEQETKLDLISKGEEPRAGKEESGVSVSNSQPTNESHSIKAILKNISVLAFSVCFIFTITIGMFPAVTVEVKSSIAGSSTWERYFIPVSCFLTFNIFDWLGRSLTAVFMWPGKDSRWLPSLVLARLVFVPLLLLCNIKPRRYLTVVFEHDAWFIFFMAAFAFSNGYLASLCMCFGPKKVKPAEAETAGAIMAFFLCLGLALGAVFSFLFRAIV
Experiment: ENT1 binding assay (competition with Sahenta-DY647 on JAR cells)
Details: competition with SAHENTA-DY647 binding; IC50 categorized; read-out: Binding Assay IC50
In short: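 Fluorescent-tracer displacement: compound incubated with JAR cells 30 min, 4 °C, before Sahenta-DY647 (100 nM) for another 30 min, 4 °C, in Hepes-buffered HBSS with 0.1% BSA. Bound tracer read at 670 nm after washes; IC50 from four-parameter fit, reported as mean of pIC50 values.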

Structure (SMILES) | IC50 [µM]
Cc1cccc(C)c1CNc1ncnc2c1ncn2[C@@H]1O[C@H](C)[C@@H](O)[C@H]1O [Compound 331] | > 0.5
C[C@H]1O[C@@H](n2cnc3c(OCc4cccc(S(C)(=O)=O)c4)ncnc32)[C@H](O)[C@@H]1O [Compound 332] | > 0.5
C[C@H]1O[C@@H](n2cnc3c(OCc4ccc5cnn(C)c5c4)ncnc32)[C@H](O)[C@@H]1O [Compound 333] | > 0.5
C[C@H]1O[C@@H](n2cnc3c(NCc4ccc(S(N)(=O)=O)cc4)ncnc32)[C@H](O)[C@@H]1O [Compound 334] | > 0.5
C[C@H]1O[C@@H](n2cnc3c(NCc4cccc(OC(F)(F)F)c4)ncnc32)[C@H](O)[C@@H]1O [Compound 335] | > 0.5
C[C@H]1O[C@@H](n2cnc3c(OCCc4ccc(OCF)nc4)ncnc32)[C@H](O)[C@@H]1O [Compound 336] | > 0.5
C[C@H]1O[C@@H](n2cnc3c(SCc4ncc(F)cc4F)ncnc32)[C@H](O)[C@@H]1O [Compound 337] | > 0.5
Cc1nc2ccc(COc3ncnc4c3ncn4[C@@H]3O[C@H](C)[C@@H](O)[C@H]3O)cc2o1 [Compound 338] | > 0.5
Cc1cc2cc(CNc3ncnc4c3ncn4[C@@H]3O[C@H](C)[C@@H](O)[C@H]3O)ccc2[nH]1 [Compound 339] | > 0.5
Cc1cc(C)c(COc2ncnc3c2ncn3[C@@H]2O[C@H](C)[C@@H](O)[C@H]2O)c(C)c1 [Compound 340] | > 0.5
C[C@H]1O[C@@H](n2cnc3c(C(=O)Nc4ccc([N+](=O)[O-])cc4)ncnc32)[C@H](O)[C@@H]1O [Compound 341] | > 0.5
C[C@H]1O[C@@H](n2cnc3c(SCc4ccc5ccccc5n4)ncnc32)[C@H](O)[C@@H]1O [Compound 342] | > 0.5
C[C@H]1O[C@@H](n2cnc3c(OCCc4ccc(OCF)cc4)ncnc32)[C@H](O)[C@@H]1O [Compound 343] | > 0.5
C[C@H]1O[C@@H](n2cnc3c(OCCc4ccc(S(C)(=O)=O)cc4)ncnc32)[C@H](O)[C@@H]1O [Compound 344] | > 0.5
Cc1c(N[C@@H]2O[C@H](C)[C@@H](O)[C@H]2O)ncnc1OCCc1ccc([N+](=O)[O-])cc1 [Compound 345] | > 0.5
COc1ccc(COc2ncnc3c2ncn3[C@@H]2O[C@H](C)[C@@H](O)[C@H]2O)cc1OC1CCCC1 [Compound 346] | > 0.5
C[C@H]1O[C@@H](n2cnc3c(OCCc4cnc(C#N)nc4)ncnc32)[C@H](O)[C@@H]1O [Compound 347] | > 0.5
Cc1cc(CSc2ncnc3c2ncn3[C@@H]2O[C@H](C)[C@@H](O)[C@H]2O)no1 [Compound 348] | > 0.5
C[C@H]1O[C@@H](n2cnc3c(OCCc4ccc(OC(F)(F)F)nc4)ncnc32)[C@H](O)[C@@H]1O [Compound 349] | > 0.5
CCOc1ccc(CNC(=O)c2ncnc3c2ncn3[C@@H]2O[C@H](C)[C@@H](O)[C@H]2O)cc1 [Compound 350] | > 0.5
C[C@H]1O[C@@H](n2cnc3c(C(=O)NCc4ccc5c(ccn5C)c4)ncnc32)[C@H](O)[C@@H]1O [Compound 351] | > 0.5
C[C@H]1O[C@@H](n2cnc3c(NCc4cccc(-n5cccn5)c4)ncnc32)[C@H](O)[C@@H]1O [Compound 352] | > 0.5
C[C@H]1O[C@@H](n2cnc3c(C(=O)NCc4ccc(Cl)cc4)ncnc32)[C@H](O)[C@@H]1O [Compound 353] | > 0.5
C[C@H]1O[C@@H](n2c(N)nc3c(OCc4ccccc4)ncnc32)[C@H](O)[C@@H]1O [Compound 355] | > 0.5
C[C@H]1O[C@@H](n2cnc3c(OCCc4cnc(OCF)nc4)ncnc32)[C@H](O)[C@@H]1O [Compound 356] | > 0.5
C[C@H]1O[C@@H](n2cnc3c(NCc4ccccc4C#N)ncnc32)[C@H](O)[C@@H]1O [Compound 357] | > 0.5
C[C@H]1O[C@@H](n2cnc3c(OCc4ccccc4-n4cccn4)ncnc32)[C@H](O)[C@@H]1O [Compound 358] | > 0.5

Results, then the compound that gave them:

IC50 [µM] | Structure (SMILES)
> 0.5 | C[C@H]1O[C@@H](n2cnc3c(SCc4cc(-c5ccco5)on4)ncnc32)[C@H](O)[C@@H]1O [Compound 359]
> 0.5 | C[C@H]1O[C@@H](n2cnc3c(C(=O)N4CCc5ccc([N+](=O)[O-])cc5C4)ncnc32)[C@H](O)[C@@H]1O [Compound 360]
> 0.5 | C[C@H]1O[C@@H](n2cnc3c(C(=O)NCc4ccc(C#N)cc4)ncnc32)[C@H](O)[C@@H]1O [Compound 361]
> 0.5 | C[C@H]1O[C@@H](n2cnc3c(OCc4ncc(F)cc4F)ncnc32)[C@H](O)[C@@H]1O [Compound 362]
> 0.5 | C[C@H]1O[C@@H](n2cnc3c(OCc4ccc5c(c4)OCCO5)ncnc32)[C@H](O)[C@@H]1O [Compound 363]
> 0.5 | C[C@H]1O[C@@H](n2cnc3c(OCc4ccc(-c5ccncc5)cc4)ncnc32)[C@H](O)[C@@H]1O [Compound 364]
> 0.5 | CC(C)Oc1cccc(CSc2ncnc3c2ncn3[C@@H]2O[C@H](C)[C@@H](O)[C@H]2O)c1 [Compound 365]
> 0.5 | C[C@H]1O[C@@H](n2cnc3c(SCc4ccc(S(=O)(=O)N(C)C)cc4)ncnc32)[C@H](O)[C@@H]1O [Compound 366]
> 0.5 | Cc1nc(=O)c2cc(COc3ncnc4c3ncn4[C@@H]3O[C@H](C)[C@@H](O)[C@H]3O)ccc2[nH]1 [Compound 367]
> 0.5 | C[C@H]1O[C@@H](n2cnc3c(-c4cn(-c5ccc([N+](=O)[O-])cc5)nn4)ncnc32)[C@H](O)[C@@H]1O [Compound 368]
> 0.5 | C[C@H]1O[C@@H](n2cnc3c(C(=O)NCc4ccc(C#N)c(F)c4)ncnc32)[C@H](O)[C@@H]1O [Compound 369]
> 0.5 | C[C@H]1O[C@@H](n2cnc3c(NCc4ccc(C(=O)N(C)C)cc4)ncnc32)[C@H](O)[C@@H]1O [Compound 370]
> 0.5 | C[C@H]1O[C@@H](n2cnc3c(CO[C@H]4CC[C@H](C(F)(F)F)CC4)ncnc32)[C@H](O)[C@@H]1O [Compound 371]
> 0.5 | CNc1ccccc1COc1ncnc2c1ncn2[C@@H]1O[C@H](C)[C@@H](O)[C@H]1O [Compound 372]
> 0.5 | C[C@H]1O[C@@H](n2cnc3c(OCc4cccc(C(N)=O)c4)ncnc32)[C@H](O)[C@@H]1O [Compound 373]
> 0.5 | C[C@H]1O[C@@H](n2cnc3c(NCc4ccccc4C(N)=O)ncnc32)[C@H](O)[C@@H]1O [Compound 374]
> 0.5 | C[C@H]1O[C@@H](n2cnc3c(OCc4ccccc4S(C)(=O)=O)ncnc32)[C@H](O)[C@@H]1O [Compound 375]
> 0.5 | C[C@H]1O[C@@H](n2cnc3c(NCc4ccc5ncccc5c4)ncnc32)[C@H](O)[C@@H]1O [Compound 376]
> 0.5 | C[C@H]1O[C@@H](n2cnc3c(OCc4ccc(N5CCCC5)cc4)ncnc32)[C@H](O)[C@@H]1O [Compound 377]
> 0.5 | C[C@H]1O[C@@H](n2cnc3c(NCc4cc(C(F)(F)F)ccc4F)ncnc32)[C@H](O)[C@@H]1O [Compound 378]
> 0.5 | C[C@H]1O[C@@H](n2cnc3c(NCc4cccc(C(=O)N(C)C)c4)ncnc32)[C@H](O)[C@@H]1O [Compound 379]
> 0.5 | C[C@H]1O[C@@H](n2cnc3c(NCc4cccc(-c5ncco5)c4)ncnc32)[C@H](O)[C@@H]1O [Compound 380]
> 0.5 | Cc1nccn1-c1ccc(COc2ncnc3c2ncn3[C@@H]2O[C@H](C)[C@@H](O)[C@H]2O)cc1 [Compound 381]
